Source: patent US7888289B2, “Heterocyclylethylbenzamide derivatives” (Bayer Cropscience AG, priority 2005, dated 2011)

These molecules were tested on Alternaria brassicae (assay: In vivo test on Alternaria brassicae (radish plants, preventive spray)). Conditions: dose of 110 ppm, radish plants (Pernot variety), contaminated 24 hours after treatment, grading 6 to 7 days after contamination vs control plants, read-out: protection (good (at least 50%) to total).
Protocol: The active ingredient tested is prepared by potter homogenisation in a concentrated suspension type formulation at 100 g/l. This suspension is then diluted with water to obtain the desired active material concentration.
Radish plants (Pernot variety) in starter cups, sown on a 50/50 peat soil-pozzolana substrate and grown at 18-20° C., are treated at the cotyledon stage by spraying with the aqueous suspension described above.
Plants, used as controls, are treated with an aqueous solution not containing the active material.
After 24 hours, the plants are contaminated by spraying them with an aqueous suspension of Alternaria brassicae spores (40,000 spores per cm^3). The spores are collected from a 12-13-day-old culture.
The contaminated radish plants are incubated for 6-7 days at about 18° C., under a humid atmosphere.
Grading is carried out 6 to 7 days after the contamination, in comparison with the control plants.

Row | Structure (SMILES) | pest or weed control at 110 ppm [%]
1 | Cc1nc(CCNC(=O)c2ccccc2C(F)(F)F)sc1C [Compound B-2] | ≥ 50
2 | COc1cc(C(F)(F)F)nn1CCNC(=O)c1ccccc1Br [Compound E-1] | ≥ 50
3 | Cc1ccsc1CCNC(=O)c1ccccc1C(F)F [Compound A-1] | ≥ 50

Same assay, conditions: dose of 330 ppm, radish plants (Pernot variety), contaminated 24 hours after treatment, grading 6 to 7 days after contamination vs control plants, read-out: protection (good (at least 50%) to total)

Row | Structure (SMILES) | pest or weed control at 330 ppm [%]
4 | Cc1csc(CCNC(=O)c2ccccc2C(F)(F)F)n1 [Compound B-1] | ≥ 50
5 | Cc1ccccc1C(=O)NCCc1cn(C)nc1C(F)(F)F [Compound D-5] | ≥ 50
6 | O=C(NCCc1sccc1Cl)c1ccccc1Br [Compound A-7] | ≥ 50
7 | Cn1cc(CCNC(=O)c2ccccc2C(F)(F)F)c(C(F)(F)F)n1 [Compound D-1] | ≥ 50
8 | Cc1nc(C)c(CCNC(=O)c2ccccc2Br)s1 [Compound C-2] | ≥ 50
9 | O=C(NCCc1sccc1Cl)c1ccccc1C(F)(F)F [Compound A-5] | ≥ 50
10 | Cn1cc(CCNC(=O)c2ccccc2Cl)c(C(F)(F)F)n1 [Compound D-4] | ≥ 50
